± gives the expanded uncertainty stated by the source.
Conditions: 295 K; for surface tension liquid-gas: Maximal bubble pressure; for mass density / viscosity: 101.33 kPa, Liquid; for mass density: Buoyancy - hydrostatic balance with magnetic suspension - one sinker; for viscosity: Concentric cylinders viscometry

| surface tension liquid-gas [mN/m] | mass density [kg/m3] | viscosity [mPa·s] | Structure (SMILES) |
| --- | --- | --- | --- |
| 47.95 ± 2.4 | 1120.7 ± 22 | 21.26 ± 3.1 | OCCO [1,2-ethanediol] |
| 62.87 ± 1.4 | 1267.4 ± 25 | 1499.5 ± 190 | OCC(O)CO [glycerol] |

From the NIST ThermoML archive (doi:10.1016/j.fluid.2008.08.015)
